pIC50: −log10 of the molar value.
Key:
Assay type in all cases: biochemical
[1] = target: T1, KRAS G12D (Homo sapiens, UniProt P01116, G12D); experiment: HTRF nucleotide exchange assay (NEA), KRAS G12D; conditions: recombinant human KRAS aa1-188 G12D, 2 nM; 60 min compound incubation, EDA-GTP-DY647P1
T1 construct: aa1-188 KRAS WT, HRAS WT, NRAS WT, or KRAS containing the containing the G12D, G13D or Q61H amino acid substitutions
Procedure: (§1) HTRF Nucleotide Exchange Assay Method
(§2) The capacity of compounds to bind KRAS G12D, other KRAS mutants and wildtype RAS isoforms was quantified using a HTRF nucleotide exchange assay. Recombinant human RAS protein (2 nM; aa1-188 KRAS WT, HRAS WT, NRAS WT, or KRAS containing the containing the G12D, G13D or Q61H amino acid substitutions, or 4 nM KRAS; aa1-188 containing the G12V, G12C, G12A or G12S amino acid substitution, an N-terminal 6×His-tag and leader sequence), and 2 nM Europium-labeled anti-6×His antibody were mixed in assay buffer (10 mM HEPES pH7.3, 150 mM NaCl, 5 mM MgCl2, 0.05% BSA, 0.0025% NP-40 and 100 mM KF) with various concentrations of compound in a 384-well plate and a volume of 5 uL. After a 60-minute incubation at room temperature, Sul of 200 nM EDA-GTP-DY647P1 (diluted in assay buffer) was added to the plate. Following 30-minute incubation at room temperature, time-resolved fluorescence was measured on a PerkinElmer Envision plate reader. DMSO (0.3%) and unlabeled GDP (1 μM) or equivalent tool compound were used to generate the Max and Min assay signals, respectively. Data was analysed using a four-parameter logistic model to calculate IC50 values, with at least two independent replicates were performed for each compound.

[2] = target: T2, KRAS WT (Homo sapiens, UniProt P01116); experiment: HTRF nucleotide exchange assay (NEA), KRAS WT; conditions: recombinant human KRAS WT aa1-188, 2 nM; 60 min compound incubation, EDA-GTP-DY647P1
T2 construct: aa1-188 KRAS WT, HRAS WT, NRAS WT
Procedure: as §1, §2

[3] = target: T3, KRAS G12C (Homo sapiens, UniProt P01116, G12C); experiment: HTRF nucleotide exchange assay (NEA), KRAS G12C; conditions: recombinant human KRAS aa1-188 G12C, 4 nM; 60 min compound incubation, EDA-GTP-DY647P1
T3 construct: 4 nM KRAS; aa1-188 containing the G12V, G12C, G12A or G12S amino acid substitution
Procedure: as §1, §2

[4] = target: T4, KRAS G12V (Homo sapiens, UniProt P01116, G12V); experiment: HTRF nucleotide exchange assay (NEA), KRAS G12V; conditions: recombinant human KRAS aa1-188 G12V, 4 nM; 60 min compound incubation, EDA-GTP-DY647P1
T4 construct: 4 nM KRAS; aa1-188 containing the G12V, G12C, G12A or G12S amino acid substitution
Procedure: as §1, §2

[5] = target: T5, KRAS G12S (Homo sapiens, UniProt P01116, G12S); experiment: HTRF nucleotide exchange assay (NEA), KRAS G12S; conditions: recombinant human KRAS aa1-188 G12S, 4 nM; 60 min compound incubation, EDA-GTP-DY647P1
T5 construct: 4 nM KRAS; aa1-188 containing the G12V, G12C, G12A or G12S amino acid substitution
Procedure: as §1, §2

[6] = target: T6, KRAS G12A (Homo sapiens, UniProt P01116, G12A); experiment: HTRF nucleotide exchange assay (NEA), KRAS G12A; conditions: recombinant human KRAS aa1-188 G12A, 4 nM; 60 min compound incubation, EDA-GTP-DY647P1
T6 construct: 4 nM KRAS; aa1-188 containing the G12V, G12C, G12A or G12S amino acid substitution
Procedure: as §1, §2

[7] = target: T7, KRAS G13D (Homo sapiens, UniProt P01116, G13D); experiment: HTRF nucleotide exchange assay (NEA), KRAS G13D; conditions: 1 h; recombinant human KRAS aa1-188 G13D, 2 nM; 60 min compound incubation, EDA-GTP-DY647P1
T7 construct: aa1-188 KRAS WT, HRAS WT, NRAS WT, or KRAS containing the containing the G12D, G13D or Q61H amino acid substitutions
Procedure: as §1
The capacity of compounds to bind KRAS G12D, other KRAS mutants and wildtype RAS isoforms was quantified using a HTRF nucleotide exchange assay. […] After a 60-minute incubation at room temperature, Sul of 200 nM EDA-GTP-DY647P1 (diluted in assay buffer) was added to the plate. Following 30-minute incubation at room temperature, time-resolved fluorescence was measured on a PerkinElmer Envision plate reader. DMSO (0.3%) and unlabeled GDP (1 μM) or equivalent tool compound were used to generate the Max and Min assay signals, respectively. Data was analysed using a four-parameter logistic model to calculate IC50 values, with at least two independent replicates were performed for each compound.

[8] = target: T8, KRAS Q61H (Homo sapiens, UniProt P01116, Q61H); experiment: HTRF nucleotide exchange assay (NEA), KRAS Q61H; conditions: recombinant human KRAS aa1-188 Q61H, 2 nM; 60 min compound incubation, EDA-GTP-DY647P1
T8 construct: aa1-188 KRAS WT, HRAS WT, NRAS WT, or KRAS containing the containing the G12D, G13D or Q61H amino acid substitutions
Procedure: as §1, §2

T8 sequence (P01116 1-188 isoform P01116-2 Q61H): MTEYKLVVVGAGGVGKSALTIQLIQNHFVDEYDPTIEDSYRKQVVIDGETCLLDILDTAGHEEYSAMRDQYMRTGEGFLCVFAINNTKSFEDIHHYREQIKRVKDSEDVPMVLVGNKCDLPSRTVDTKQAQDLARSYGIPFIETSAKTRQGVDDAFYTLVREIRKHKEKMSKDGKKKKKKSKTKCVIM
T4 sequence (P01116 1-188 isoform P01116-2 G12V): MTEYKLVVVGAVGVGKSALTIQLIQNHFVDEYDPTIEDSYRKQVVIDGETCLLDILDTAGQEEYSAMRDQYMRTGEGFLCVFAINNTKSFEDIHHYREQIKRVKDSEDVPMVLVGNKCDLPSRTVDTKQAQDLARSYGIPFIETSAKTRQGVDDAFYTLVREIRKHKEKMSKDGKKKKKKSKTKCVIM
T3 sequence (P01116 1-188 isoform P01116-2 G12C): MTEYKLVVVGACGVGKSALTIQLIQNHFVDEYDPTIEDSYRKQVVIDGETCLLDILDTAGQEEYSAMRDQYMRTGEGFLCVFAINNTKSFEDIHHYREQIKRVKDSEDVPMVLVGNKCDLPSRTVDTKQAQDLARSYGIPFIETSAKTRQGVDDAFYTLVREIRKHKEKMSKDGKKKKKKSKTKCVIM
T5 sequence (P01116 1-188 isoform P01116-2 G12S): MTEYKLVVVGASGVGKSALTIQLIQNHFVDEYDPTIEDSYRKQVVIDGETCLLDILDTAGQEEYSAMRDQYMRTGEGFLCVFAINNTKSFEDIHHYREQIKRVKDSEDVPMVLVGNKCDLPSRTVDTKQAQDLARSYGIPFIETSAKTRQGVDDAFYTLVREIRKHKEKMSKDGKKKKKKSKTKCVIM
T7 sequence (P01116 1-188 isoform P01116-2 G13D): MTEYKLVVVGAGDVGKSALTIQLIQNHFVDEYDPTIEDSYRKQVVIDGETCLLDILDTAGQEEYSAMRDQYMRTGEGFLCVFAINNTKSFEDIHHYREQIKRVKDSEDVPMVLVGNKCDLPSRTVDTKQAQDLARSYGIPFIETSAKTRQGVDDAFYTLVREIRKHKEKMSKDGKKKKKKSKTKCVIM
T6 sequence (P01116 1-188 isoform P01116-2 G12A): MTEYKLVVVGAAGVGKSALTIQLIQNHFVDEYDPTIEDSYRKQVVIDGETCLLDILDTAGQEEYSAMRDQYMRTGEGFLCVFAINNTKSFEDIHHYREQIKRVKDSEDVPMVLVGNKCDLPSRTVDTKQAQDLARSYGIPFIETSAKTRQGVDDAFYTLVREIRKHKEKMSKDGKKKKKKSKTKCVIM
T2 sequence (P01116 1-188 isoform P01116-2): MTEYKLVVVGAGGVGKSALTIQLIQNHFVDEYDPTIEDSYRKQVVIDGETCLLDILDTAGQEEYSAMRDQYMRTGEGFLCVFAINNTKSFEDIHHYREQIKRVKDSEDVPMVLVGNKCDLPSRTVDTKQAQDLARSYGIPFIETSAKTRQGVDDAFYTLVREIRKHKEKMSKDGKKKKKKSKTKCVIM
T1 sequence (P01116 1-188 isoform P01116-2 G12D): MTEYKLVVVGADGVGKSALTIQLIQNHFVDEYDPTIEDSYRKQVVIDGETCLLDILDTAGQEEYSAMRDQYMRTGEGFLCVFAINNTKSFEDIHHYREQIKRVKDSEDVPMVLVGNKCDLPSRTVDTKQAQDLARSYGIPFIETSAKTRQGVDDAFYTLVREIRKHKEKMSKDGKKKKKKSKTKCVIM

pIC50 [1] | pIC50 [2] | pIC50 [3] | pIC50 [4] | pIC50 [5] | pIC50 [6] | inhibition at 10 µM [7] | pIC50 [8] | SMILES
> 8.00 | > 8.00 | > 8.00 | > 8.00 | > 8.00 | > 8.00 | 10 to 49% | > 8.00 | C#Cc1c(F)ccc2cc(O)cc(-c3ccc4c(N5CCCOCC5)nc(OC[C@@]56CCCN5C[C@H](F)C6)nc4c3C)c12 (racemic) [Example 6, rac-5-ethynyl-6-fluoro-4-[2-[[(2R,8S)-2-fluoro-1,2,3,5,6,7-hexahydropyrrolizin-8-yl]methoxy]-8-methyl-4-(1,4-oxazepan-4-yl)quinazolin-7-yl]naphthalen-2-ol]
> 8.00 | > 8.00 | > 8.00 | > 8.00 | 7.00 to 8.00 | > 8.00 | – | 7.00 to 8.00 | C#Cc1c(F)ccc2cc(O)cc(-c3ccc4c(N5CCCNC(=O)C5)nc(OC[C@@]56CCCN5C[C@H](F)C6)nc4c3C)c12 (racemic) [Example 24, 4-[7-(8-ethynyl-7-fluoro-3-hydroxy-1-naphthyl)-2-[[rac-(2R,8S)-2-fluoro-1,2,3,5,6,7-hexahydropyrrolizin-8-yl]methoxy]-8-methyl-quinazolin-4-yl]-1,4-diazepan-2-one]
> 8.00 | > 8.00 | > 8.00 | > 8.00 | > 8.00 | > 8.00 | – | – | C#Cc1c(F)ccc2cc(O)cc(-c3ccc4c(N5CCCOCC5)nc(OC[C@@]56CCCN5C[C@H](F)C6)nc4c3F)c12 (racemic) [Example 26, 5-ethynyl-6-fluoro-4-[8-fluoro-4-(1,4-oxazepan-4-yl)-2-[[rac-(2R,8S)-2-fluoro-1,2,3,5,6,7-hexahydropyrrolizin-8-yl]methoxy]quinazolin-7-yl]naphthalen-2-ol]
5.00 to 7.00 | 5.00 to 7.00 | 5.00 to 7.00 | 5.00 to 7.00 | – | – | 10 to 49% | 5.00 to 7.00 | Cc1c(-c2cc(O)cc3ccccc23)ccc2c(N3CCCOCC3)nc(OCC34CCCN3CCC4)nc12 [Example 2, 4-[2-(1,2,3,5,6,7-hexahydropyrrolizin-8-ylmethoxy)-8-methyl-4-(1,4-oxazepan-4-yl)quinazolin-7-yl]naphthalen-2-ol]
7.00 to 8.00 | 7.00 to 8.00 | > 8.00 | > 8.00 | 5.00 to 7.00 | 7.00 to 8.00 | – | 7.00 to 8.00 | Cc1c(-c2cccc3sc(N)c(C#N)c23)ccc2c(N3CCCOCC3)nc(OCC34CCCN3CCC4)nc12 [Example 22, 2-amino-4-[2-(1,2,3,5,6,7-hexahydropyrrolizin-8-ylmethoxy)-8-methyl-4-(1,4-oxazepan-4-yl)quinazolin-7-yl]benzothiophene-3-carbonitrile]
7.00 to 8.00 | 7.00 to 8.00 | 7.00 to 8.00 | 7.00 to 8.00 | 5.00 to 7.00 | 7.00 to 8.00 | 10 to 49% | 5.00 to 7.00 | Oc1cc(-c2ccc3c(N4CCCOCC4)nc(OCC45CCCN4CCC5)nc3c2F)c2ccccc2c1 [Example 25, 4-[8-fluoro-2-(1,2,3,5,6,7-hexahydropyrrolizin-8-ylmethoxy)-4-(1,4-oxazepan-4-yl)quinazolin-7-yl]naphthalen-2-ol]
7.00 to 8.00 | 7.00 to 8.00 | 7.00 to 8.00 | 7.00 to 8.00 | 5.00 to 7.00 | 5.00 to 7.00 | – | – | N#Cc1cc2c(N3CCCOCC3)nc(OCC34CCCN3CCC4)nc2c(F)c1-c1cc(O)cc2ccccc12 [Example 27, 8-fluoro-2-(1,2,3,5,6,7-hexahydropyrrolizin-8-ylmethoxy)-7-(3-hydroxy-1-naphthyl)-4-(1,4-oxazepan-4-yl)quinazoline-6-carbonitrile]

Reference: US20240287078A1, “QUINAZOLINE DERIVATIVES USEFUL AS RAS INHIBITORS” (Redx Pharma PLC, priority 2021, published 2024)
